Measured values reported in patent US20040121965A1, “Method of treating resistant tumors” (Wyeth Holdings Corporation, priority 2002, published 2004).
Read-outs that look alike come from different tables or passages of the source. Square brackets hold non-standard residues; d marks the D form. Peptide text beside a SMILES is read from it. * marks the point of attachment. X1 = COC1=CC(=O)N(C(=O)[C@@H](O*)C(C)C)[C@H]1Cc1ccccc1; NMe2Val = CC(C)[C@@H](C(=O)*)N(C)C; NMeV = CN[C@H](C(=O)O)C(C)C

Legend:
[1] = test system: KB-HTI-4.0; assay: Cell survival assay, KB-3-1 line made resistant to Example 129 (KB-HTI-4.0); type: cell-based, human
Excerpt: Cells lines with previously known mechanisms of resistance. […] Res. 8: 207-218,1996); KB-3-1 (parental derived from an epidermoid carcinoma), KB-8.5, KB-V1 (Akiyama S-I, Fojo A, Hanover J A, Pastan I, Gottesman M M. Isolation and genetic characterization of human KB cell lines resistant to multiple drugs. Somatic Cell Mol. Gen., 11: 117-126,1985; Shen D-W, Cardarelli C, Hwang J, Cornwell M, Richert N, Ishii S, Pastan I, Gottesman MM. […] J. Biol. Chem., 261: 7762-7770, 1986); and HL-60 (parental derived from human leukemia) and HL60/AR (McGrath T., Center M. S. Adriamycin resistance in HL60 cells in the absence of detectable P-glycoprotein. Biochem. Res. Commun., 145:1171-1176,1987); A549 and A549.EpoB40 (He L., Yang C.-P.H., Horwitz S. B. Mutations in p-tubulin map to domains involved in regulation of microtubule stability in epothilone-resistant cell lines. Molecular Cancer Therapeutics. 1: 3-10, 2001). HCT-15 human colon carcinoma and DLD-1 human colon carcinoma are obtained from American Tissue Culture Collection. The MX-1W carcinoma is a Wyeth variant orginally obtained as MX-1 breast carcinoma from the National Cancer Institute. Cell lines selected for resistance to Representative Example 129. KB-3-1 cells are selected for resistance to Example 129 by chronically exposing cells to increasing concentrations of Example 129.
2.2. Cell Survival Assay: Standard Pharmacological Test Procedure. The concentration of candidate inhibitor required to inhibit 50% of cell growth (IC50) is done according to previously reported methods. […] Compounds are serially diluted into media as 2× stocks and 100 μl added to cells in duplicate. Compounds are incubated with cells for 3 days. At the end of the incubation period the sulforhodamine B (SRB) assay, which measures protein content as an assessment of cell survival, is performed as described previously (Skehan P, Storeng R, Scudiero D, Monks A, McMahon J, Vistica D, Warren J T, Bokesch H, Kenney S, Boyd MR. New calorimetric cytotoxicity assay for anticancer-drug screening. J Natl Cancer Inst 1990 Jul 4;82(13):1107-12) with some modification as follows. For KB-3-1 cells with 20% FCS, media is gently decanted and replaced with 200 μl of serum-free media mixed with cold 50% TCA for a final concentration of 10% TCA. The plates are incubated for 1 hr at 4° C., followed by washing 5 times in cold distilled water, then air dried overnight. The fixed cells are stained for 10 min with 80 μl of 0.04% SRB solution prepared in 1% glacial acetic acid. Stain is discarded and plates washed 5 times in 1% glacial acetic acid, then air-dried until completely dry. Stained cell product is dissolved in 150 μl of 10 mM Trizma Base and placed on a shaker for 20 minutes until fully dissolved. Absorbance is read on a Victor V multi-label plate reader (Perkin Elmer, Gaithersburg, Md.).
Cells are selected for resistance to Example 129 to understand the frequency and mechanistic basis of resistance.

[2] = test system: KB-3-1; assay: Cell survival assay (SRB), KB-3-1; type: cell-based, human
Outline: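 SRB protein stain as survival read-out; IC50 = conc. giving 50% growth inhibition. Compound serially diluted, duplicate wells, 3 d exposure; TCA fixation (10% final, 1 h, 4 °C), 0.04% SRB/1% acetic acid 10 min, solubilised in 10 mM Trizma Base, A read.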

[3] = test system: KB-8-5 (MDR1+); assay: Cell survival assay (SRB), KB-8-5 (MDR1+); conditions: for IC50: Homo sapiens
[4] = test system: KB-V1 (MDR1++); assay: Cell survival assay (SRB), KB-V1 (MDR1++); conditions: for IC50: Homo sapiens
[5] = test system: Human Melanoma Carcinoma Lox; conditions: staged LOX xenograft; at MTD ('<': MTD not achieved); days 11-15
Procedure: 2.4. Growth of Tumors in Nude Mice. […] In these experiments, xenografts are implanted subcutaneously into the flanks of nude mice. […] Relative tumor mass compared to controls are assessed during the 21-day post-staging period.
Groups of 5 female nu/nu mice are injected with 1.5×10^6 KB-3-1 (A) or Lox cells (B). […] Relative tumor growth is determined during the experiment and % T/C calculated. Statistical analyses are Student's t-test of treated time points vs. vehicle (*, P<0.05; **, P<0.01)

[6] = KB-3-1 line made resistant to Example 129, Table 8, read-out: KB-HTI-4.0 IC50
[7] = KB-3-1 parental, Table 8, read-out: KB-3-1 IC50
[8] = MDR1, read-out: In vitro IC50 (nM) KB85
[9] = Homo sapiens, KB 3-1, 72 h, amount of drug needed to kill 50% of cells after three days continuous exposure, Table 11, read-out: IC50 in parental cell line KB-3-1
[10] = Homo sapiens, KB 3-1, KB-3-1 cells (paclitaxel-sensitive parent), read-out: In vitro IC50 (nM) KB-3-1
[11] = read-out: In vitro IC50 (nM) KBV1
[12] = Homo sapiens, KB-3-1 line made resistant to Example 129, Table 8, read-out: KB-HTI-4.0 IC50
[13] = Homo sapiens, KB-3-1 parental, Table 8, read-out: KB-3-1 IC50

Compound	(RR) relative resistance vs. parental cells ([1]; KB-HTI-4.0 vs KB-3-1)	Ratio KB85/KB [3]	IC50 [3, 8] [nM]	IC50 [2, 10] [nM]	Ratio KBV1/KB [4]	IC50 [4, 11] [nM]	IC50 [1, 12] [nM]	IC50 [2, 13] [nM]	other results
C=C(C)[C@@H]1NC(=O)[C@@H](NC)[C@@H](O)c2cc(Cl)c(O)c(c2)O[C@](C)(CC)[C@@H](C(=O)N2CC=C[C@H]2C(=O)N/C(C(=O)N/C(=C/C(=O)O)C(=O)O)=C(\C)CC)NC1=O [Phomopsin A]	(5)	–	–	–	–	–	–	–	IC50 [1, 6]: 3530 ± 2990 nM; IC50 [2, 7]: 671 ± 55 nM
CN[C@@H](C(=O)N[C@H](C(=O)N(C)[C@H](/C=C(\C)C(=O)O)C(C)C)C(C)(C)C)C(C)(C)c1cc(F)cc(F)c1 [Example 65, 3,5-Difluoro-N,β,β-trimethyl-D-phenylalanyl-N^1-[(1S,2E)-3-carboxy-1-isopropylbut-2-enyl]-N^1,3-dimethyl-L-valinamide]	–	1.5	2.9	2	38.8	77.6	–	–	IC50 [2, 9]: 2 nM; Activity in nude mice animal model (% T/C @ MTD on days 11-15) LOX [5]: 8%
CC/C(=C\[C@H](C(C)C)N(C)C(=O)[C@@H](NC(=O)[C@@H](NC)C(C)(C)c1ccccc1)C(C)(C)C)C(=O)O [Example 78, N,β,β-Trimethyl-L-phenylalanyl-N^1-[(1S,2E)-3-carboxy-1-isopropyl-2-pentenyl]-N 1,3-dimethyl-L-valinamide]	–	2.5	13.7	5.4	94.9	512	–	–	IC50 [2, 9]: 5.4 nM; Activity in nude mice animal model (% T/C @ MTD on days 11-15) LOX [5]: 17%
dolastatin	–	–	–	–	–	–	–	–	resistance of KB-3-1-derived cell lines selected with Example 129 ([1]; vs KB-3-1): 28 fold
COC1=CC(=O)N(C(=O)[C@@H](OC(=O)[C@@H]2CCCN2C(=O)[C@@H]2CCCN2C(=O)[C@H](C(C)C)N(C)C(=O)[C@@H](NC(=O)[C@H](C(C)C)N(C)C)C(C)C)C(C)C)[C@H]1Cc1ccccc1 [Dolastatin −15] (NMe2Val-V[NMeV]PP-X1)	(12)	–	–	–	–	–	–	–	IC50 [1, 6]: 0.49 ± 0.14 nM; IC50 [2, 7]: 0.04 ± 0.05 nM
C(=N\NC1=NCCN1)/c1c2ccccc2c(/C=N/NC2=NCCN2)c2ccccc12 [Bisantrene]	(3)	–	–	–	–	–	299 ± 91	119 ± 47	–
CO[C@]12C=C[C@](C)(O1)[C@@H](OC(=O)/C=C/c1cn(C)cn1)C[C@H]1C(C)=CC[C@H](C(C)C)[C@H]1/C=C\2CO[C@@H]1OC[C@@H](O)[C@@H](O)[C@@H]1OC(C)=O [Eleutherobin]	–	–	–	–	–	–	–	–	(RR) relative resistance vs. parental cells [1]: (1); IC50 ([1]; Homo sapiens, KB 3-1, read-out: KB-HTI-4.0 IC50, nM): 21.3 ± 4.4 nM; IC50 ([2]; Homo sapiens, KB 3-1, read-out: KB-3-1 IC50, nM): 17.4 ± 1.63 nM
CCC1=C[C@@H]2CN(C1)Cc1c([nH]c3ccccc13)[C@@](C(=O)OC)(c1cc3c(cc1OC)N(C)[C@H]1[C@@](O)(C(=O)OC)[C@H](OC(C)=O)[C@]4(CC)C=CCN5CC[C@]31[C@@H]54)C2 [vinorelbine, reference compound]	(7)	–	–	–	–	–	8.64 ± 2.94	1.22 ± 0.33	IC50 ([3]; MDR1, read-out: KB-8-5 (MDR1+) IC50, nM (N)): 132 nM; RR, relative resistance ([3]; IC50 KB-8-5 / IC50 KB-3-1, Table 3): 38; resistance of KB-8-5 cells ([3]; KB-8-5 (KB-85) vs KB-3-1, in vitro): 38 fold; IC50 ([2]; Homo sapiens, KB-3-1 parental, Table 3, read-out: KB-3-1 IC50, nM (N)): 3.5 nM; IC50 ([4]; read-out: KB-V1 (MDR1++) IC50, nM (N)): > 3000 nM; RR, relative resistance ([4]; IC50 KB-V1 / IC50 KB-3-1, Table 3): >857
CC[C@@]1(O)C(=O)OCc2c1cc1n(c2=O)Cc2cc3ccccc3nc2-1 [Camptothecin, camptothecin]	(23)	–	–	–	–	–	335 ± 157	14.9 ± 6.11	–
CO[C@@H](/C(C)=C/C=C/C(C)=C/c1coc(C)n1)[C@@H](C)[C@@H]1C[C@H](O)[C@@]2(C)O[C@@H]2/C=C/[C@@H](C)[C@H]2C[C@H](CC(=O)O2)C[C@@H]2O[C@H]2C(=O)O1 [Rhizoxin]	(11)	–	–	–	–	–	98.4 ± 37.6	–	IC50 ([2]; Homo sapiens, KB 3-1, KB-3-1 parental, Table 8, read-out: KB-3-1 IC50): 9.13 ± 2.17 nM
C=CC(C)(C)[C@H](NC(=O)[C@@H](NC)C(C)(C)c1ccccc1)C(=O)N(C)[C@H](/C=C(\C)C(=O)O)C(C)C [Example 120, (2E,4S)4-[{(2S)-3,3-dimethyl-2-[(N,β,β-trimethyl-L-phenylalanyl)amino]4-pentenoyl}(methyl)amino]-2,5-dimethyl-2-hexenoic Acid]	–	–	–	–	–	–	–	–	IC50 [2, 9]: 3.5 nM; Activity in nude mice animal model (% T/C @ MTD on days 11-15) LOX [5]: 20%
CC[C@@]1(O)C(=O)OCc2c1cc1n(c2=O)Cc2cc3c(CN(C)C)c(O)ccc3nc2-1 [Topotecan, topotecan]	(57)	–	–	–	–	–	1030 ± 541	18.1 ± 2.98	–
CN[C@@H](C(=O)N[C@H](C(=O)N(C)[C@H](/C=C(\C)C(=O)O)C(C)C)C(C)(C)C)C(C)(C)c1ccc(C)c(C)c1 [Example 15, N,β,β,3,4-Pentamethyl-D-phenylalanyl-N^1-[(1S,2E)-3-carboxy-1-isopropyl-2-butenyl]-N^1,3-dimethyl-L-valinamide]	–	1.6	21.4	13.8	87.1	1200	–	–	–
COc1cc2cc(c1Cl)N(C)C(=O)C[C@H](OC(=O)[C@H](C)N(C)C(C)=O)[C@]1(C)O[C@H]1[C@H](C)[C@@H]1C[C@@](O)(NC(=O)O1)[C@H](OC)/C=C/C=C(\C)C2 [Maytansine]	(14)	–	–	–	–	–	0.84 ± 0.19	0.06	–
CCOC(=O)/C(C)=C/[C@H](C(C)C)N(C)C(=O)/C(C)=C/[C@H](C(C)C)N(C)C(=O)[C@@H](NC(=O)[C@@H](NC)C(C)(C)c1ccccc1)C(C)(C)C [Example 113, N,β,β-trimethyl-L-phenylalanyl-N^1-{(1S,2E)-4-[[(1S,2E)-4-ethoxy-1-isopropyl-3-methyl-4-oxobut-2-enyl](methyl)amino]-1-isopropyl-3-methyl-4-oxobut-2-enyl}-N^1,3-dimethyl-L-valinamide]	–	1.9	34	18	32.3	582	–	–	–
CN[C@H](C(=O)N[C@H](C(=O)N(C)[C@H](/C=C(\C)C(=O)O)C(C)C)C(C)(C)C)C(C)(C)SCc1ccc(OC)cc1 [Example 150, 3-[(4-methoxybenzyl)thio]-N-methyl-L-valyl-N^1-[(1S,2E)-3-carboxy-1-isopropylbut-2-enyl]-N^1,3-dimethyl-L-valinamide]	–	2.1	11.3	5.2	36.5	190	–	–	–
